Where two headings read alike, the source gives them in different places.
Key:
SaPDF [1] = target: T1, SaPDF (Streptococcus agalactiae serotype III, UniProt Q8E378, S2A); assay: biochemical; settings: SaPDF KI*app, PDFI pre-incubated with enzyme 10 min at 37 °C, started by 2 mM Fo-Met-Ala-Ser; 40 nM SaPDF
T1 construct: the recombinant protein contains all residues of the 204 amino acids mature protein; made in house; host or cells: E. coli Rosetta 2(DE3)pLysS

AtPDF1B [2] = target: T2, AtPDF1B (Arabidopsis thaliana, UniProt Q9FUZ2); assay: PDF inhibition, formate dehydrogenase-coupled spectrophotometric assay (AtPDF1B); format: biochemical; settings: no pre-incubation, assay initiated by addition of enzyme; 100 nM AtPDF1B; 37 °C
T2 construct: made in house
T2 sequence (Q9FUZ2 83-273): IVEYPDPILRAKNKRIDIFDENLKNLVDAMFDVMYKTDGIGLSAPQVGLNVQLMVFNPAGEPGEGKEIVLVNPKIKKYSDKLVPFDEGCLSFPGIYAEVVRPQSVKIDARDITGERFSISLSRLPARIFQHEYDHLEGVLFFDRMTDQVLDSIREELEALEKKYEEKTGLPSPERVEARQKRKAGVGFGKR

EcPDF = target: T3, EcPDF (Escherichia coli, UniProt P0A6K3); assay: PDF inhibition, formate dehydrogenase-coupled spectrophotometric assay (EcPDF); format: biochemical; settings: for Ki: 10 nM EcPDF; for EcPDF KI/KI*app: enhancement potency (slow tight-binding)
T3 construct: made in house
T3 sequence (P0A6K3 whole entry): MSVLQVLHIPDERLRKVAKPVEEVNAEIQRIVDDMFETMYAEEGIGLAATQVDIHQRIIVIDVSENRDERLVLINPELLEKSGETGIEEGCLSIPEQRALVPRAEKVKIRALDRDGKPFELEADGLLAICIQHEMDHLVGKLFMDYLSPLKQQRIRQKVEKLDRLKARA
Experimental: (§1) The formate released by the deformylation reaction is used by FDH to convert NAD in NADH, the production of which being measured over time at 340 nm and controlled temperature (37 °C). The 200 μL reaction mixture contained 50 mM HEPES-NaOH pH7.5, 12 mM NAD^+, 4.5 U/mL FDH, 1 mM NiCl2 and PDF enzyme (either 40 nM SaPDF or 10 nM EcPDF or 100 nM AtPDF1B) previously diluted in presence of 0.1 mg/mL BSA. The reaction was started by addition of 1–6 mM Fo-Met-Ala-Ser. Kinetics parameters (kcat, Km) were derived from iterative non-linear least square fits using the Michaelis-menten equation based on the experimental data (Sigma-Plot, Kinetics module).
(§2) 1/KI*app is the slope of the v0/vi curve in function of compound concentration, where v0 and vi are the initial reaction rates in absence and presence of compound, respectively.
(§3) Determination of KI values was performed with a slightly modified protocol: reaction was started by addition of enzyme instead of Fo-Met-Ala-Ser, the latter being directly added to the mixture containing increasing concentrations of each compound. No pre-incubation of enzyme in presence of compound was done. 1/KI is the slope of the v0/vi curve in function of compound concentration, where v0 and vi are the initial reaction rates in absence and presence of compound respectively.

AtPDF1B [3] = target: T2, AtPDF1B; assay: PDF inhibition, formate dehydrogenase-coupled spectrophotometric assay (AtPDF1B); format: biochemical; settings: for IC50 / Ki: 100 nM AtPDF1B; for IC50: 2 mM Fo-Met-Ala-Ser, 10 min pre-incubation at 37 °C; for Ki: PDFI pre-incubated with enzyme 10 min at 37 °C, started by 2 mM Fo-Met-Ala-Ser, read-out: AtPDF1B KI*app; for AtPDF1B KI/KI*app: enhancement potency (slow tight-binding)
Experimental: as §1, with “Enzymatic activity was measured by a spectrophotometric assay where peptide deformylase activity is coupled to that of formate dehydrogenase. The formate” for “The formate”
as §2, §3

SaPDF [4] = target: T1, SaPDF; assay: biochemical; settings: for Ki: SaPDF KI, no pre-incubation, assay initiated by addition of enzyme, 40 nM SaPDF, 37 °C; for SaPDF KI/KI*app: enhancement potency (slow tight-binding)
Experimental: as §1, with “Enzymatic activity was measured by a spectrophotometric assay where peptide deformylase activity is coupled to that of formate dehydrogenase. The formate” for “The formate”
as §2, §3

S. aureus SA113 = assay: MIC, S. aureus SA113; format: cell-based; settings: Staphylococcus aureus
Text: (§4) Two E. coli strains, one B. subtilis strain, one S. aureus strain, one E. faecalis strain, one S. agalactiae strain and three Enterobacter aerogenes strains previously described were used. Briefly, AG100 was an E. coli wild type strain and AG100A its acrAB^- derivative. EA289 was a Kan^s derivative of an E. aerogenes multi-drug resistant (MDR) clinical isolate overexpressing AcrAB-TolC efflux pumps, and EA294 and EA298 its acrAB^- and tolC^- derivatives respectively. Strains were routinely grown at 37 °C on Luria-Bertani (LB) agar or in Mueller-Hinton II broth (MH), supplemented with kanamycine (50 μg.mL^−1) for AG100A, EA294 and EA298.
(§5) MIC values of antibiotics were determined by the microdilution method in liquid MH media in microplates in the absence or presence of chemosensitizers/modulators (e.g. PMBN, PAβN), as previously described. Permeabilization, blocking of efflux pumps, and isolates with different levels of porin or efflux expression were used to assess the involvement of the membrane barrier in antibiotic activity.
(§6) Susceptibilities were determined in 96-wells microplates with an inoculum of 2 × 10^5 cfu in 200 μL of MH broth containing two-fold serial dilutions of each antibiotics or compounds. Molecules were tested alone or in combination with other molecules in equimolar ratio. MICs were realized in the absence and in the presence of a membrane permeabilizer, the polymyxine B nonapeptide (PMBN) used at 51.2 mg/L (1/5 or 1/10 of its direct MIC previously determined). Actinonin and ciprofloxacin were used as internal antibiotic reference. […] Each test was systematically performed in triplicate. The average of three independent assays is presented in μg/mL in the respective tables.

E. faecalis EFA 103.214 = assay: MIC, E. faecalis EFA 103.214; format: cell-based; settings: Enterococcus faecalis, EFA103.214, read-out: MIC E. faecalis EFA 103.214
Text: as §4, §5, §6

E. coli AG100 = assay: MIC by microdilution, E. coli AG100; format: cell-based; settings: 18 h at 37 °C, average of three assays; for MIC: Escherichia coli, AG100, without PMBN; for MIC AG100: with PMBN at 1/5 of its MIC
Text: as §4, §5, §6

[5] = system: E. coli AG100A (AcrAB- derivative); assay: MIC by microdilution, E. coli AG100A; format: cell-based; settings: for MIC: Escherichia coli, 18 h, read-out: MIC AG100A; for MIC AG100A: with PMBN at 1/5 of its MIC, 18 h at 37 °C, average of three assays
Text: as §4, §5, §6

[6] = system: E. aerogenes Ea298, Ea289 derivative tolC-; assay: MIC by microdilution, E. aerogenes Ea298; format: cell-based, Enterobacter aerogenes
Text: as §4, §5, §6

[7] = system: E. aerogenes Ea294, Ea289 derivative AcrAB-; assay: MIC by microdilution, E. aerogenes Ea294; format: cell-based, Enterobacter aerogenes
Text: as §4, §5, §6

[8] = system: E. aerogenes Ea289, MDR strain; assay: MIC by microdilution, E. aerogenes Ea289; format: cell-based, Enterobacter aerogenes
Text: as §4, §5, §6

[9] = EcPDF KI*app, PDFI pre-incubated with enzyme 10 min at 37 °C, started by 2 mM Fo-Met-Ala-Ser
[10] = EcPDF KI, no pre-incubation, assay initiated by addition of enzyme, 37 °C
[11] = +PMBN at 1/5 of its MIC, average of three assays

T1 sequence (Q8E378 whole entry S2A): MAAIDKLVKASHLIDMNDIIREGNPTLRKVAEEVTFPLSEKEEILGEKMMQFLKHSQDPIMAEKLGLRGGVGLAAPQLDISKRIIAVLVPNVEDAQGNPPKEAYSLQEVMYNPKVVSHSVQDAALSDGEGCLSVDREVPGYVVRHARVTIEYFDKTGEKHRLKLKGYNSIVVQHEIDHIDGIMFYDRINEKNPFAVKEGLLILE

## CC(C)(C)OC(=O)N[C@@H](Cc1ccccc1)CN(O)C=O [RAS358]
SaPDF [1]
  Ki: 454 ± 29 nM
AtPDF1B [2]
  Ki: 2000 ± 150 nM
EcPDF
  IC50: 110 ± 10 nM
  EcPDF KI/KI*app: 5
EcPDF; [9]
  Ki: 164 ± 40 nM
EcPDF; [10]
  Ki: 833 ± 30 nM
AtPDF1B [3]
  IC50: 251 ± 15 nM
  Ki: 400 ± 37 nM
  AtPDF1B KI/KI*app: 5
SaPDF [4]
  IC50: 150 ± 12 nM
  Ki: 1430 ± 125 nM
  SaPDF KI/KI*app: 3

## CCCCC(CC(=O)NO)c1nc(Cc2ccc(F)cc2)no1 (stereo not drawn) [AT002]
SaPDF [1]
  Ki: 4 ± 0.5 nM
AtPDF1B [2]
  Ki: 58 ± 4 nM
S. aureus SA113
  MIC: > 64 µg/mL
EcPDF
  IC50: 4 ± 1 nM
  EcPDF KI/KI*app: 6
EcPDF; [9]
  Ki: 5 ± 2 nM
EcPDF; [10]
  Ki: 31 ± 7 nM
E. faecalis EFA 103.214
  MIC: > 64 µg/mL
E. coli AG100
  MIC: > 64 µg/mL
  MIC AG100: 64 µg/mL
[5]
  MIC: > 64 µg/mL
  MIC AG100A: 32 µg/mL
AtPDF1B [3]
  Ki: 53 ± 3 nM
  AtPDF1B KI/KI*app: 1
SaPDF [4]
  IC50: 3.5 ± 0.8 nM
  Ki: 13 ± 1 nM

## O=C(Cc1c[nH]c2ccc(Br)cc12)NO [AB47]
SaPDF [1]
  Ki: 73 ± 5 nM
AtPDF1B [2]
  Ki: 455 ± 89 nM
EcPDF
  IC50: 37 ± 5 nM
  EcPDF KI/KI*app: 1
EcPDF; [9]
  Ki: 39 ± 2 nM
EcPDF; [10]
  Ki: 47 ± 2 nM
E. coli AG100
  MIC: > 64 µg/mL
  MIC AG100: 64 µg/mL
[5]
  MIC: 64 µg/mL
  MIC AG100A: 32 µg/mL
AtPDF1B [3]
  IC50: 360 ± 31 nM
  Ki: 400 ± 35 nM
  AtPDF1B KI/KI*app: 1
SaPDF [4]
  IC50: 63 ± 6 nM
  Ki: 62 ± 3 nM
  SaPDF KI/KI*app: 1

## O=C(Cn1cc(Cc2ccccc2)c2cc(Br)ccc21)NO [SMP289]
SaPDF [1]
  Ki: 714 ± 72 nM
AtPDF1B [2]
  Ki: 1000 ± 78 nM
S. aureus SA113
  MIC: 4 µg/mL
EcPDF
  IC50: 480 ± 30 nM
  EcPDF KI/KI*app: 1
EcPDF; [9]
  Ki: 625 ± 75 nM
EcPDF; [10]
  Ki: 769 ± 30 nM
E. faecalis EFA 103.214
  MIC: 16 µg/mL
E. coli AG100
  MIC: > 64 µg/mL
  MIC AG100: 8 µg/mL
[5]
  MIC: > 64 µg/mL
  MIC AG100A: 4 µg/mL
AtPDF1B [3]
  IC50: 703 ± 47 nM
  Ki: 1430 nM
  AtPDF1B KI/KI*app: 1
SaPDF [4]
  IC50: 360 ± 21 nM
  Ki: 909 ± 64 nM
  SaPDF KI/KI*app: 1

## CCCC[C@H](CC(=O)NO)c1nc(Cc2coc3ccccc23)no1 [AT015]
SaPDF [1]
  Ki: 122 ± 13 nM
S. aureus SA113
  MIC: > 64 µg/mL
[6]; [11]
  MIC Ea298: 8 µg/mL
[6]; Klebsiella aerogenes, 18 h, read-out: MIC Ea298
  MIC: 128 µg/mL
EcPDF
  IC50: 17 ± 2 nM
  EcPDF KI/KI*app: 3
EcPDF; [9]
  Ki: 10 ± 2 nM
EcPDF; [10]
  Ki: 35 ± 5 nM
[7]; [11]
  MIC Ea294: 16 µg/mL
[7]; Klebsiella aerogenes, 18 h, read-out: MIC Ea294
  MIC: > 128 µg/mL
E. faecalis EFA 103.214
  MIC: > 64 µg/mL
E. coli AG100
  MIC: > 64 µg/mL
  MIC AG100: 16 µg/mL
[5]
  MIC: 32 µg/mL
  MIC AG100A: 2 µg/mL
AtPDF1B [3]
  IC50: 300 ± 12 nM
  Ki: 1100 nM
[8]; [11]
  MIC Ea289: 128 µg/mL
[8]; Klebsiella aerogenes, 18 h, read-out: MIC Ea289
  MIC: > 128 µg/mL
SaPDF [4]
  IC50: 20 ± 3 nM
  Ki: 166 ± 12 nM
  SaPDF KI/KI*app: 1

Reference: publication PMC5071857, “A unique peptide deformylase platform to rationally design and challenge novel active compounds” (Scientific Reports, 2016)
